Patent US12655125B2 (SIRONAX LTD., priority 2020, dated 2026)

test system: HT-29 cells; assay: HT29 Cells 0FBS Assay In Vitro (TNF-α/SMAC mimetic/zVAD-FMK induced necroptosis, CellTiter-Glo cell viability); format: cell-based; settings: Homo sapiens; HT-29 cells, FBS free medium, TNF-α (10 ng/ml), SMAC mimetic (6 uM), zVAD-FMK (10 μM), 20 hours; geometric mean EC50; read-out: Cell activity (EC50) of Compounds 1-116
Text: Protocol for HT29 Cells 0FBS Assay In Vitro
• Cell line: HT-29 (ATCC® HTB-38™) • Culture medium: McCOY's 5 A, Gibco, Cat No. 16600-082 • FBS, Gibco, Cat No. 10099-141C • Trypsin: Gibco, Cat No. 25200-056 • DMSO: Sigma, Cat No. 67-68-5, 1 L • Assay plate: Corning #3903 • Compound dilution plate: Corning #3357 • Inducers: TNFα, GenScript, Cat No. ZO1001-50, • SmacM, Cat. No., HY-15989, MedChemExpress (MCE) • Z_VAD FMK, TargetMol, T6013 • Cell Titer-Glo® Luminescent Cell Viability Assay Kit: Promega, Cat No. G7573 • EnVision: PerkinElmer, 2105-0010 2. Cell Seeding of HT-29 Cells • 1) HT-29 cells were checked every day to make sure they are healthy and growing as expected. They were split sub-culturing when were approximately 80% confluent. • 2) First pre-warm the culture medium of McCOY's 5 A medium (Gibco, Cat No. 16600-082) with 10% FBS (Gibco, Cat No. 10099-141C) in 37° C. water bath for at least 30 min. • 3) Growing cells to desired level of confluency 80% in a T75 flask, aspirate the medium, and wash with warm PBS two times. • 4) Add 2-3 ml fresh warm trypsin (Gibco, Cat No. 25200-056) solution. Transfer the flask to a 37° C. incubator. • 5) After 5 minutes, tap the side of the flask, and examine the flask under a microscope for lifting. If necessary, return the cells to the incubator for an additional 5-10 minutes, with occasional tapping, until lifting is complete. • 6) Quickly neutralize the trypsin reaction by adding 6-9 ml cell culture medium, then transfer the cells to sterile 15 ml conical tubes. Pellet the cells by centrifugation at 300×g for 7 minutes, then decant the supernatant. • 7) Resuspend the cells in fresh cell culture medium. Do cell counting with hemocytometer. • 8) Seed 100 μl of 5,000 cells into each well of the sterile 96-well cell culture plate (Corning 3903) and culture overnight at 37° C. with 5% C02. 3. Compounds Titration and Treatment of HT-29 Cells • 1) All batches of compounds (CPDs) (e.g., compound 1-281) were dissolved in DMSO (Dimethyl sulfoxide) as 20 mM stock solution. • 2) Take 3 ul 20 mM stock solution of CPDs to 27 ul DMSO and mix well, continue the titration ratio of 1:3 (20 ul CPDs+40 ul DMSO), e.g., to give solutions of CPDS at 6.6 mM, 2.2 mM, etc., till the 10 points end. • 3) Take out assay plates with HT-29 cells from incubator, remove all culture medium then wash 1 time with 1×PBS, and change fresh McCOY's 5 A medium of FBS free with a cocktail of TNF-α (10 ng/ml), the SMAC mimetic (6 uM) and zVAD-FMK (10 μM) to stimulate the HT-29 cells to increase pRIPK1 levels and necroptosis. • 4) Add 0.5 μL of the diluted compound to the corresponding 96-well assay plates. • 5) Incubate the assay plates for 20 hours at 37° C. with 5% C02. 4. Performing Cell Viability Detection of HT-29 Cells after Treated with Compounds • 1) The CellTiter-Glo® Luminescent Cell Viability Assay was employed to detect the ATP levels of viable HT-29 cells. • 2) Equilibrate the CellTiter-Glo® buffer and the lyophilized substrate to room temperature prior to use. • 3) Resuspend the CellTiter-Glo® substrate with CellTiter-Glo® buffer, mix by gently vortexing to obtain a homogeneous solution. • 4) Pipette 20 μl the enzyme/substrate mixture by multi-channel pipette into the 96-well assay plates from step 5) under the Compounds titration and treatment stage. • 5) Place the plates on an orbital shaker and mix the contents for 3 minutes to induce cell lysis. • 6) Then allow the plates to incubate at room temperature for 10 minutes to stabilize luminescent signal. • 7) Read and record luminescence signal with EnVision. • 8) The geometric mean EC50 of the compounds were calculated from points response dose with duplicate. In Tables 2 and 4, activity is provided as follows: +++=0.1 nM≤EC50<100 nM; ++=100 nM≤EC50<1000 nM; +=1000 nM≤EC50<10000 nM.

`Cc1nn(-c2cc(OC3CN(C(=O)N4N=CC[C@H]4c4cc(F)cc(F)c4)C3)c(F)cn2)c(C)c1N` [compound 109, (S)-(3-((2-(4-amino-3,5-dimethyl-11H-pyrazol-1-yl)-5-fluoropyridin-4-yl)oxy)azetidin-1-yl)(5-(3,5-difluorophenyl)-4,5-dihydro-1H-pyrazol-1-yl)methanone] and `Cc1nn(CC(N)=O)c(C)c1-c1ncc(F)c(OC2CN(C(=O)N3N=CC[C@H]3c3cc(F)cc(F)c3)C2)n1` [compound 99, (S)-2-(4-(4-((1-(5-(3,5-difluorophenyl)-4,5-dihydro-1H-pyrazole-1-carbonyl)azetidin-3-yl)oxy)-5-fluoropyrimidin-2-yl)-3,5-dimethyl-1H-pyrazol-1-yl)acetamide] fall in the same range of EC50: 0.1 to 100 nM for the first, 0.1 to 100 nM for the second.

First: Cc1csnc1-c1ccc(F)c(OC2CN(C(=O)N3N=CC[C@H]3c3cc(F)cc(F)c3)C2)n1 [compound 23, (S)-(5-(3,5-difluorophenyl)-4,5-dihydro-1H-pyrazol-1-yl)(3-((3-fluoro-6-(4-methylisothiazol-3-yl)pyridin-2-yl)oxy)azetidin-1-yl)methanone]
Second: Cn1ccc(-c2ncc(F)c(OC3CN(C(=O)N4N=CC[C@H]4c4cc(F)cc(F)c4)C3)n2)n1 [compound 39, (S)-(5-(3,5-difluorophenyl)-4,5-dihydro-1H-pyrazol-1-yl)(3-((5-fluoro-2-(1-methyl-1H-pyrazol-3-yl)pyrimidin-4-yl)oxy)azetidin-1-yl)methanone]
The EC50 of the first is lower: 0.1 to 100 nM for the first, 100 to 1000 nM for the second. The first is the more potent here.

`CC(C)CNC(=O)c1cnn(C)c1-c1cc(OC2CN(C(=O)N3N=CC[C@H]3c3cc(F)cc(F)c3)C2)c(F)cn1` [compound 70, (S)-5-(4-((1-(5-(3,5-difluorophenyl)-4,5-dihydro-1H-pyrazole-1-carbonyl)azetidin-3-yl)oxy)-5-fluoropyridin-2-yl)-N-isobutyl-1-methyl-1H-pyrazole-4-carboxamide] and `CC(C)C(=O)Nc1cnn(C)c1-c1cc(OC2CN(C(=O)N3N=CC[C@H]3c3cc(F)cc(F)c3)C2)c(F)cn1` [compound 59, (S)—N-(5-(4-((1-(5-(3,5-difluorophenyl)-4,5-dihydro-1H-pyrazole-1-carbonyl)azetidin-3-yl)oxy)-5-fluoropyridin-2-yl)-1-methyl-1H-pyrazol-4-yl)isobutyramide] fall in the same range of EC50: 0.1 to 100 nM for the first, 0.1 to 100 nM for the second.

`Cn1ncc(F)c1-c1ncc(F)c(OC2CN(C(=O)N3N=CC[C@H]3c3cc(F)cc(F)c3)C2)n1` [compound 82, (S)-(5-(3,5-difluorophenyl)-4,5-dihydro-1H-pyrazol-1-yl)(3-((5-fluoro-2-(4-fluoro-1-methyl-1H-pyrazol-5-yl)pyrimidin-4-yl)oxy)azetidin-1-yl)methanone] and `Cc1cnn(C)c1-c1ncc(F)c(OC2CN(C(=O)N3N=CC[C@H]3c3cc(F)cc(F)c3)C2)n1` [compound 42, (S)-(5-(3,5-difluorophenyl)-4,5-dihydro-1H-pyrazol-1-yl)(3-((2-(1,4-dimethyl-1H-pyrazol-5-yl)-5-fluoropyrimidin-4-yl)oxy)azetidin-1-yl)methanone] fall in the same range of EC50: 0.1 to 100 nM for the first, 0.1 to 100 nM for the second.

same assay, conditions: Homo sapiens; HT-29 cells, FBS free medium, TNF-α (10 ng/ml), SMAC mimetic (6 uM), zVAD-FMK (10 μM), 20 hours; geometric mean EC50; read-out: Cell activity (EC50) of Compounds 117-281

`Cc1ccc(C(N)=O)n1-c1cc(OC2CN(C(=O)N3N=CC[C@H]3c3cc(F)cc(F)c3)C2)c(F)cn1` [compound 161, (S)-1-(4-((1-(5-(3,5-difluorophenyl)-4,5-dihydro-1H-pyrazole-1-carbonyl)azetidin-3-yl)oxy)-5-fluoropyridin-2-yl)-5-methyl-1H-pyrrole-2-carboxamide] and `Cc1nn(-c2cc(OC3CN(C(=O)N4N=CC[C@H]4c4cc(F)cc(F)c4)C3)c(F)cn2)c(C)c1C(=O)N1CCC1` [compound 195, (S)-azetidin-1-yl(1-(4-((1-(5-(3,5-difluorophenyl)-4,5-dihydro-1H-pyrazole-1-carbonyl)azetidin-3-yl)oxy)-5-fluoropyridin-2-yl)-3,5-dimethyl-1H-pyrazol-4-yl)methanone] fall in the same range of EC50: 0.1 to 100 nM for the first, 0.1 to 100 nM for the second.

`Cc1c(-c2cc(OC3CN(C(=O)N4N=CC[C@H]4c4cc(F)cc(F)c4)C3)c(F)cn2)nn(C)c1C(=O)NC1COC1` [compound 262, (S)-3-(4-((1-(5-(3,5-difluorophenyl)-4,5-dihydro-1H-pyrazole-1-carbonyl)azetidin-3-yl)oxy)-5-fluoropyridin-2-yl)-1,4-dimethyl-N-(oxetan-3-yl)-1H-pyrazole-5-carboxamide] and `Cc1nn(-c2cc(OC3CN(C(=O)N4N=CC[C@H]4c4cc(F)cc(F)c4)C3)c(F)cn2)c(C)c1C(=O)NC1COC1` [compound 217, (S)-1-(4-((1-(5-(3,5-difluorophenyl)-4,5-dihydro-1H-pyrazole-1-carbonyl)azetidin-3-yl)oxy)-5-fluoropyridin-2-yl)-3,5-dimethyl-N-(oxetan-3-yl)-1H-pyrazole-4-carboxamide] fall in the same range of EC50: 0.1 to 100 nM for the first, 0.1 to 100 nM for the second.

First: Cc1nn(-c2cc(OC3CN(C(=O)N4N=CC[C@H]4c4cc(F)cc(F)c4)C3)c(F)cn2)c(C)c1S(=O)(=O)NC1CCOCC1 [compound 241, (S)-1-(4-((1-(5-(3,5-difluorophenyl)-4,5-dihydro-1H-pyrazole-1-carbonyl)azetidin-3-yl)oxy)-5-fluoropyridin-2-yl)-3,5-dimethyl-N-(tetrahydro-2H-pyran-4-yl)-1H-pyrazole-4-sulfonamide]
Second: COC(=O)Cn1nc(C)c(-c2cc(OC3CN(C(=O)N4N=CC[C@H]4c4cc(F)cc(F)c4)C3)c(F)cn2)c1C [compound 118, methyl (S)-2-(4-(4-((1-(5-(3,5-difluorophenyl)-4,5-dihydro-1H-pyrazole-1-carbonyl)azetidin-3-yl)oxy)-5-fluoropyridin-2-yl)-3,5-dimethyl-1H-pyrazol-1-yl)acetate]
The EC50 of the first is lower: 0.1 to 100 nM for the first, 1000 to 10000 nM for the second. The first is the more potent here.

First: Cn1ncc(NCCN2CCOCC2)c1-c1cc(OC2CN(C(=O)N3N=CC[C@H]3c3cc(F)cc(F)c3)C2)c(F)cn1 [compound 120, (S)-(5-(3,5-difluorophenyl)-4,5-dihydro-1H-pyrazol-1-yl)(3-((5-fluoro-2-(1-methyl-4-((2-morpholinoethyl)amino)-1H-pyrazol-5-yl)pyridin-4-yl)oxy)azetidin-1-yl)methanone]
Second: Cc1c(-c2cc(OC3CN(C(=O)N4N=CC[C@H]4c4cc(F)cc(F)c4)C3)c(F)cn2)c(CO)nn1CC1COC1 [compound 169, (S)-(5-(3,5-difluorophenyl)-4,5-dihydro-1H-pyrazol-1-yl)(3-((5-fluoro-2-(3-(hydroxymethyl)-5-methyl-1-(oxetan-3-ylmethyl)-1H-pyrazol-4-yl)pyridin-4-yl)oxy)azetidin-1-yl)methanone]
The EC50 of the first is lower: 0.1 to 100 nM for the first, 1000 to 10000 nM for the second. The first is the more potent here.

`Cc1c(-c2cc(OC3CN(C(=O)N4N=CC[C@H]4c4cc(F)cc(F)c4)C3)c(F)cn2)c(CO)nn1CC1CC1` [compound 168, (S)-(3-((2-(1-(cyclopropylmethyl)-3-(hydroxymethyl)-5-methyl-1H-pyrazol-4-yl)-5-fluoropyridin-4-yl)oxy)azetidin-1-yl)(5-(3,5-difluorophenyl)-4,5-dihydro-1H-pyrazol-1-yl)methanone] gave an EC50 of 0.1 to 100 nM.
